Measured values: patent publication US4918079A, “Imidazole derivatives as 5-HT3 receptor antagonists” (Beecham Group p.l.c., priority 1987, dated 1990)
Structures can show the parent of a compound that is named as a salt.

Tested on: von Bezold-Jarisch reflex evoked by 5-HT
Test: Antagonism of the von Bezold-Jarisch reflex evoked by 5-HT in the anaesthetised rat
Format: in vivo
Settings: iv, male rats, urethane anaesthesia, 5-HT usually 6 μg/kg i.v., heart rate, read-out: ED50 (concentration required to reduce the 5-HT-evoked response to 50% of the control response)
Description: Antagonism of the von Bezold-Jarisch reflex
The compounds were evaluated for antagonism of the von Bezold-Jarisch reflex evoked by 5-HT in the anaesthetised rat according to the following method:
Male rats 250≥350 g, were anaesthetised with urethane (1.25 g/kg intraperitoneally) and blood pressure and heart rate recorded as described by Fozard J. R. et al., J. Cardiovasc. Pharmacol. 2, 229-245 (1980). A submaximal dose of 5-HT (usually 6 μg/kg) was given repeatedly by the intravenous route and changes in heart rate quantified. Compounds were given intravenously and the concentration required to reduce the 5-HT-evoked response to 50% of the control response (ED50) was then determined.

## CC1(C)CN(C(=O)CCc2c[nH]cn2)c2ccccc21 [Example E1, monohydrochloride]
  ED50: 4.2 µg/kg
